Measurements as given in US20250002488A1, “Glioblastoma Multiforme Treatments” (Brown University, priority 2021, published 2025).

Tests used:
[1] = system: GSCs; experiment: cell viability assay by MTS; format: cell-based; settings: increasing doses, 72 hrs
Method: Dose response curve for GSCs treated with Pan HDAC inhibitors TSA (Trichostatin A), SAHA (Vorinostat) versus the HDAC class IIa inhibitor (TMP269). Cell viability assay was determined by MTS after the treatment with increasing doses of each corresponding drug at time point 72 hrs with P-value <0.0001.
HDAC-7 has been crystalized, and like other members of class I, II, and IV, HDAC-7 binds to the substrates through a zinc mediated charge relay system. Class IIa HDAC has another specific zinc-binding motif adjacent to the active site, which directs the recognition and protein-protein interaction. However, there is remarkable structural diversity in HDAC-7 found in loop regions around the active site entrance that poses a challenge to generation of inhibitors.

[2] = system: GSCs; experiment: two-week limiting dilution assay (LDA), self-renewal / neuro-sphere formation; format: cell-based
Excerpt: A graph using an online algorism to score and assess the self-renew ability of GSCs treated with DMSO and HDAC class IIa inhibitor respectively (FIGS. 6B and 6D).
To validate whether HDAC-7 inhibition would present a phenotype change in primary GSCs, its effect on modifying the self-renewal of GSCs was examined, and since there is no small molecule drug currently available as a selective HDAC-7 inhibitor, the class IIa HDAC inhibitor, TMP269, that inhibits HDAC-4,5,7,9, was used. The two-week limiting dilution assay “LDA” that tests the frequency of self-renewing cells within a population was applied. […] Moreover, the same significant result was observed when testing GSCs from different genotypes (FIGS. 6A-6D).

| Compound | GSC cell viability [1] | neuro-sphere formation of GSCs ([2]; 2-week limiting dilution assay, versus DMSO control) | self-renewal of GSCs (ability to form neuro-spheres, algorithmic scoring) ([2]; two-week LDA, versus DMSO-treated control cells, GSCs from different genotypes) |
| --- | --- | --- | --- |
| O=C(CCCCCCC(=O)Nc1ccccc1)NO [Vorinostat] | inhibitory trend |  |  |
| O=C(NCC1(c2nc(-c3ccccc3)cs2)CCOCC1)c1cccc(-c2noc(C(F)(F)F)n2)c1 [TMP269] | decreases the GSCs' viability | unable to form neuro-spheres | significant decrease |
